According to patent publication US4396550A, “Dibenz [b,e] oxepin derivatives” (Kyowa Hakko Kogyo Co., Ltd., priority 1980, dated 1983):

Columns and labels:
male dd-strain rats = experiment: Acute toxicity test (minimum lethal dose); assay type: in vivo; settings: mortality for 7 days
Procedure: Groups of male dd-strain rats (each group consisting of five rats) weighing 20±1 g were used. The compounds of the present invention were administered orally (po: 0.3 mg/g) or intraperitoneally (ip: 0.1 mg/g). The MLD (minimum lethal dose) was calculated from the mortality for 7 days after the administration to obtain the results given in Table 1.

[1] = tested on: isolated ileum of guinea-pig; experiment: Test for anticholinergic effects on the isolated ileum of guinea-pig (acetylcholine contraction, in vitro); set-up: species or system guinea-pig (male Hartly-strain); settings: depressing ratio of 80% or more of acetylcholine contraction, compound 3 minutes before; for minimal effective concentration: Cavia porcellus, 0.05 h, read-out: Anticholinergic activity: MED (minimum effective dose)
Procedure: (§1) Male Hartly-strain guinea-pigs weighing about 250 g are killed and the abdomen is opened. The part (2-3 cm in length) of the ileum 10 cm away from the caecum to the pylorus is cut off as a preparation. The preparation is suspended with serre-fine in a Magnus bath containing 10 ml of Tyrode's solution at 32±1° C. under an air bubble. The contraction of the ileum is recorded on Kymograph through hebel when 0.1 ml of acetylcholine at a concentration of 10^-3 g/ml is added to the Tyrode's solution.
(§2) On the other hand, 3 minutes after administration of the test compounds, the same procedure as mentioned above is carried out to record the contraction.

[2] = tested on: isolated ileum of guinea-pig; experiment: Test for antihistaminergic effects on the isolated ileum of guinea-pig (histamine contraction, in vitro); set-up: species or system guinea-pig (male Hartly-strain); settings: depressing ratio of 80% or more of histamine contraction; for minimal effective concentration: Cavia porcellus, 0.05 h, read-out: Antihistaminergic activity: MED
Procedure: as §1, §2
In this test, 0.1 ml of histamine at a concentration of 5×10^-3 g/l is used.

[3] = tested on: blood platelets (platelet-rich plasma); experiment: Test for the inhibition of platelet aggregation (collagen-induced, platelet-rich plasma); assay type: cell-based, male white rabbits; settings: depressing ratio of 50% of collagen-induced aggregation, compound 3 minutes before; for minimal effective concentration: Oryctolagus cuniculus, Platelet, 0.05 h, read-out: Antiplatelet aggregation activity: MED
Procedure: In this test, 9 vols. of blood are sampled from the caroted artery of male white rabbits weighing 2 to 2.5 kg and placed in a silicon-coated flask containing 1 vol. of 3.8% sodium citrate. The thus obtained blood is centrifuged at 1,000 rpm for 15 minutes to obtain platelet-rich plasma. The aggregation of the blood platelets is observed using an aggregometer, when collagen is added to the platelet-rich plasma to the extent of the final concentration that 50% of platelet aggregation is caused in the presence of 100 γ/ml of aspirin. On the other hand, 3 minutes after administration of the test compounds to the platelet-rich plasma, the same procedure as mentioned above is carried out to observe the aggregation of blood platelet. The test compounds showing a depressing ratio of 50%, compared with the inhibition of aggregation by collagen alone, are concluded to have antiplatelet aggregation activity.

Antiasthmatic activity = assay type: in vivo; settings: po; for minimal effective dose: read-out: Antiasthmatic activity: MED

Compound	Acute toxicity: MLD (minimum lethal dose) (male dd-strain rats; ip) [mg/kg]	Acute toxicity: MLD (minimum lethal dose) (male dd-strain rats; po) [mg/kg]	Anticholinergic activity: MED (minimum effective dose) [1] [µg/mL]	Antihistaminergic activity: MED [2] [µg/mL]	Antiplatelet aggregation activity: MED [3] [µg/mL]	Antiasthmatic activity: MED (Antiasthmatic activity) [mg/kg]	minimal effective concentration [1] [µg/mL]	minimal effective concentration [2] [µg/mL]	minimal effective concentration [3] [µg/mL]	minimal effective dose (Antiasthmatic activity) [mg/kg]
4-methyl-11-(3-quinuclidinyl)amino-6,11-dihydrodibenz[b,e]oxepin [Compound 56]	100	200	1	1	20	100	–	–	–	–
CCc1ccc2c(c1)C(NCCN(CC)CC)c1ccccc1CO2 (centres unmarked) [Compound 1, 2-ethyl-11-{2-(diethylamino)ethyl}amino-6,11-dihydrodibenz[b,e]oxepin]	> 100	> 300	–	–	–	–	1	1	20	50
CCN(CC)CCNC1c2ccccc2COc2ccc(Cl)cc21 (centres unmarked) [Compound 10, 2-chloro-11-{2-(diethylamino)ethyl}amino-6,11-dihydrodibenz[b,e]oxepin]	> 100	> 300	–	–	–	–	–	–	2	100
CCc1ccc2c(c1)C(NCCCN(C)C)c1ccccc1CO2 (centres unmarked) [Compound 15, 2-ethyl-11-{3-(dimethylamino)propyl}amino-6,11-dihydrodibenz[b,e]oxepin]	> 100	> 300	–	–	–	–	3	3	20	–
Cc1ccc2c(c1)C(NCCN1CCNCC1)c1ccccc1CO2 (centres unmarked) [Compound 25, 2-methyl-11-{2-(1-piperazinyl)ethyl}amino-6,11-dihydrodibenz[b,e]oxepin]	> 100	> 300	–	–	–	–	10	10	20	–
CCc1ccc2c(c1)C(NCCN1CCNCC1)c1ccccc1CO2 (centres unmarked) [Compound 26, 2-ethyl-11-{2-(1-piperazinyl)ethyl}amino-6,11-dihydrodibenz[b,e]oxepin]	> 100	> 300	–	–	–	–	3	3	5	–
CCN1CCCC(NC2c3ccccc3COc3ccc(C)cc32)C1 (centres unmarked) [Compound 27, 2-methyl-11-(1-ethyl-3-piperidyl)amino-6,11-dihydrodibenz[b,e]oxepin]	> 100	300	–	–	–	–	1	10	100	–
Cc1ccc2c(c1)C(NCCc1ccccn1)c1ccccc1CO2 (centres unmarked) [Compound 36, 2-methyl-11-{2-(2-pyridyl)ethyl}amino-6,11-dihydrodibenz[b,e]oxepin]	100	200	–	–	–	–	10	3	100	–
Cc1ccc2c(c1)C(N1CCN(CCO)CC1)c1ccccc1CO2 (centres unmarked) [Compound 37, 2-methyl-11-{4-(2-hydroxyethyl)-1-piperazinyl}-6,11-dihydrodibenz[b,e]oxepin]	> 100	> 300	–	–	–	–	10	10	50	–
OCCN1CCN(C2c3ccccc3COc3ccc(Cl)cc32)CC1 (centres unmarked) [Compound 40, 2-chloro-11-{4-(2-hydroxyethyl)-1-piperazinyl}-6,11-dihydrodibenz[b,e]oxepin]	> 100	> 300	–	–	–	–	–	3	100	50
CCc1ccc2c(c1)C(N1CCN(CCN)CC1)c1ccccc1CO2 (centres unmarked) [Compound 45, 2-ethyl-11-{4-(2-aminoethyl)-1-piperazinyl}-6,11-dihydrodibenz[b,e]oxepin]	100	> 300	–	–	–	–	10	10	100	–
CN1CCN(C2c3ccccc3COc3c(-c4ccccc4)cccc32)CC1 (centres unmarked) [Compound 47, 4-phenyl-11-(4-methyl-1-piperazinyl)-6,11-dihydrodibenz[b,e]oxepin]	100	200	–	–	–	–	3	10	10	–
CCN(CC)CCNC1c2ccccc2COc2ccc(C3CCCCC3)cc21 (centres unmarked) [Compound 48, 2-cyclohexyl-11-{2-(diethylamino)ethyl}amino-6,11-dihydrodibenz[b,e]oxepin]	100	> 300	–	–	–	–	3	3	100	–
CN(C)CCCNC1c2ccccc2COc2ccc(F)cc21 (centres unmarked) [Compound 49, 2-fluoro-11-{3-(dimethylamino)propyl}amino-6,11-dihydrodibenz[b,e]oxepin]	> 100	> 300	–	–	–	–	3	1	50	–
CN(C)CCCNC1c2ccccc2COc2ccc(Cl)cc21 (centres unmarked) [Compound 50, 2-chloro-11-{3-(dimethylamino)propyl}amino-6,11-dihydrodibenz[b,e]oxepin]	> 100	200	–	–	–	–	10	3	50	–
CCC(C)(C)c1ccc2c(c1)C(NC1CN3CCC1CC3)c1ccccc1CO2 (centres unmarked) [Compound 53, 2-(1,1-dimethyl)propyl-11-(3-quinuclidinyl)amino-6,11-dihydrodibenz[b,e]oxepin]	50	> 300	–	–	–	–	10	1	–	50
c1ccc(-c2ccc3c(c2)C(NC2CN4CCC2CC4)c2ccccc2CO3)cc1 (centres unmarked) [Compound 55, 2-phenyl-11-(3-quinuclidinyl)amino-6,11-dihydrodibenz[b,e]oxepin]	> 100	> 300	–	–	–	–	3	1	20	–
c1ccc(-c2cccc3c2OCc2ccccc2C3NC2CN3CCC2CC3)cc1 (centres unmarked) [Compound 57, 4-phenyl-11-(3-quinuclidinyl)amino-6,11-dihydrodibenz[b,e]oxepin]	100	> 300	–	–	–	–	3	3	10	–
Cc1ccc2c(c1)C(NCCN1CCOCC1)c1ccccc1CO2 (centres unmarked) [Compound 59, 2-methyl-11-(2-morpholinoethyl)amino-6,11-dihydrodibenz[b,e]oxepin]	> 100	200	–	–	–	–	–	10	100	100
CCc1ccc2c(c1)C(NC1CC(C)(C)NC(C)(C)C1)c1ccccc1CO2 (centres unmarked) [Compound 63, 2-ethyl-11-{4-(2,2,6,6-tetramethyl)piperidinyl}amino-6,11-dihydrodibenz[b,e]oxepin]	100	200	–	–	–	–	3	3	10	–
